# Laboratory results as given in US20050256103A1, “Indole derivative having piperidine ring” (Eisai Co., Ltd., priority 2004, published 2005).
# Assays:
# [1] = system: urinary reflex of Sprague-Dawley female rats; assay: Inhibitory action against accentuated urinary reflex of rat due to destruction of the superior colliculus (cystometrogram); assay type: in vivo; conditions: dose 0.3 mg/kg, iv; rat with superior colliculus lesion
# Text: (1) In the present test, Sprague-Dawley female rates (200-350 g) were used. The rats were subjected to median incision of the abdomen under anesthesia. Thereafter, a hole with a minor diameter was made on the head portion of the bladder, and a catheter used for measurement of an intravesical pressure was placed therein. A catheter used for administration of a test substance was placed in the femoral vein. These catheters were fixed at the occipital region of the rat through the subcutis. One day later, the urinary reflex of the rats was measured with a cystometrogram. Thereafter, the rats were fixed on a brain stereotaxis apparatus under anesthesia, and then subjected to median incision of the scalp. […] Thereafter, electric current was applied (65° C., 4 minutes), so as to damage the brain tissues. After completion of the operation, when the rat awakened from anesthesia, cystometrogram was conducted again to confirm the enhanced state of urinary reflex. A test substance was administered through the catheter placed in the femoral vein, and the action of the test substance to the urinary reflex was evaluated. In addition, the effects of several test substances were compared using the maximal reaction (Emax).
# serotonin 1A receptor = molecular target: T1, serotonin 1A receptor (Mus musculus, UniProt Q64264); assay: Antagonistic effect on serotonin 1A receptor agonist (8-OH-DPAT)-induced hypothermia in mouse; assay type: in vivo; conditions: CD-1 (ICR) male mice; inhibition of hypothermia by 8-OH-DPAT 0.5 mg/kg sc; test substance 15 minutes before agonist
# T1 construct: into the rectum of CD-1 (ICR) male mice (25-45 g); from tissue; host or cells: living CD-1 (ICR) male mice (in vivo)
# T1 sequence (Q64264 1-421): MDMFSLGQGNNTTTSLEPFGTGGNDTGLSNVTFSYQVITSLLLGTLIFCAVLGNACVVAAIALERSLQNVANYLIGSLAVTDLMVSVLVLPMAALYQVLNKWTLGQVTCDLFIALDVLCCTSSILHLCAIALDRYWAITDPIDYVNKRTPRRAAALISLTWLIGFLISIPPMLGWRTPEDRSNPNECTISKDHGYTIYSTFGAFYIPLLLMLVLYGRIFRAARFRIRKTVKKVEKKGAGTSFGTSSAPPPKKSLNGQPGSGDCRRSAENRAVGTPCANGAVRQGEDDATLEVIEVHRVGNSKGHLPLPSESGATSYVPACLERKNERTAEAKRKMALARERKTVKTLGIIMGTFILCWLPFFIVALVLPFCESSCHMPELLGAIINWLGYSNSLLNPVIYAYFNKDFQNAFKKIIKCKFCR
# Summary of the method: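 CD-1 (ICR) male mice, 25-45 g; rectal temperature by thermistor probe at about 2 cm depth. Test substance given 15 min before s.c. 8-OH-DPAT […]; antagonism scored as inhibition of the induced hypothermia.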
structure (smiles),measurement,setting,value
"CNC(=O)c1ccc2ccn(C3CCN(CCc4c(OC)ccc5c4OC(C)(C)CC5=O)CC3)c2c1 [Compound 20, 1-{1-[2-(7-methoxy-2,2-dimethyl-4-oxochroman-8-yl)ethyl]piperidin-4-yl}-N-methyl-1H-indole-6-carboxamide]",Bladder capacity Emax,[1],94%
same,ED50,serotonin 1A receptor,"0.03 mg/kg, sc"
